These molecules were tested on DU-4475 (assay: normalised response (% of control), CellTiter-Glo; higher = more viable cells (100 = DMSO, 0 = benzethonium chloride kill control)). Conditions: incubation time: 72 h.
In short: (§1)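 For each plate, 0.1 % DMSO was set to 100 and a positive kill control to 0. Breast cancer cell lines (20 µl suspension) were seeded into 384-well plates already holding compound at 5 concentrations in 10-fold steps over a 10,000-fold range chosen per compound, and incubated for 72 h. CellTox Green fluorescence at 485/520 nm was read before CellTiter-Glo luminescence, which followed 10 min at room temperature. Each value is the normalised signal at one concentration.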
In the case of `CS(=O)(=O)OCCCCOS(C)(=O)=O` [Busulfan] (10 nM), the normalised response is reported as 106%. Work on `CCOc1cc2ncc(C#N)c(Nc3ccc(OCc4ccccn4)c(Cl)c3)c2cc1NC(=O)/C=C/CN(C)C` [Neratinib] (0.1 nM) yielded a normalised response of 98.5%.

What follows are molecules tested on CAL-51 in the same assay as above. Conditions: incubation time: 72 h.
In short: as §1
Molecule `COc1c(C)cnc(Cn2cnc3c(Cl)nc(N)nc32)c1C` [BIIB021] (1 nM) has a normalised response of 74%. For `C[C@@]1(C(=O)Nc2ccc(F)nc2)CCCN1c1nc(Nc2cc(C3CC3)n[nH]2)c2cccn2n1` (1 nM), the normalised response was 95.1%. In the case of `O=c1[nH]c(=O)n([C@H]2C[C@H](O)[C@@H](CO)O2)cc1F` [Floxuridine] (1 nM), the normalised response is reported as 120%. Work on `O=c1[nH]cc(F)c(=O)[nH]1` [Fluorouracil] (1 nM) yielded a normalised response of 124%. For `CS(=O)(=O)OCCCCOS(C)(=O)=O` [Busulfan] (10 nM), the normalised response was 87.1%. `CCOc1cc2ncc(C#N)c(Nc3ccc(OCc4ccccn4)c(Cl)c3)c2cc1NC(=O)/C=C/CN(C)C` [Neratinib] (0.1 nM) showed a normalised response of 89%.

The molecules below were run on BT-474 in the same assay as above. Conditions: incubation time: 72 h.
In short: as §1
For `COc1c(C)cnc(Cn2cnc3c(Cl)nc(N)nc32)c1C` [BIIB021] (1 nM), the normalised response was 99.1%. `C[C@@]1(C(=O)Nc2ccc(F)nc2)CCCN1c1nc(Nc2cc(C3CC3)n[nH]2)c2cccn2n1` (1 nM) gave a normalised response of 93%. `O=c1[nH]c(=O)n([C@H]2C[C@H](O)[C@@H](CO)O2)cc1F` [Floxuridine] (1 nM) showed a normalised response of 104%. In the case of `O=c1[nH]cc(F)c(=O)[nH]1` [Fluorouracil] (1 nM), the normalised response is reported as 99.5%. `CS(=O)(=O)OCCCCOS(C)(=O)=O` [Busulfan] (10 nM) showed a normalised response of 102%. In the case of `CCOc1cc2ncc(C#N)c(Nc3ccc(OCc4ccccn4)c(Cl)c3)c2cc1NC(=O)/C=C/CN(C)C` [Neratinib] (0.1 nM), the normalised response is reported as 105%.

Each molecule was assayed on SK-BR-3 in the same assay as above. Conditions: incubation time: 72 h.
In short: as §1
Work on `COc1c(C)cnc(Cn2cnc3c(Cl)nc(N)nc32)c1C` [BIIB021] (1 nM) yielded a normalised response of 93.6%. `C[C@@]1(C(=O)Nc2ccc(F)nc2)CCCN1c1nc(Nc2cc(C3CC3)n[nH]2)c2cccn2n1` (1 nM) gave a normalised response of 87.3%. For `O=c1[nH]c(=O)n([C@H]2C[C@H](O)[C@@H](CO)O2)cc1F` [Floxuridine] (1 nM), the normalised response was 107%. `O=c1[nH]cc(F)c(=O)[nH]1` [Fluorouracil] (1 nM) showed a normalised response of 108%. Work on `CS(=O)(=O)OCCCCOS(C)(=O)=O` [Busulfan] (10 nM) yielded a normalised response of 111%. `CCOc1cc2ncc(C#N)c(Nc3ccc(OCc4ccccn4)c(Cl)c3)c2cc1NC(=O)/C=C/CN(C)C` [Neratinib] (0.1 nM) was tested, and the normalised response was 101%.

These molecules were tested on BT-549 in the same assay as above. Conditions: incubation time: 72 h.
In short: as §1
`COc1c(C)cnc(Cn2cnc3c(Cl)nc(N)nc32)c1C` [BIIB021] (1 nM) was tested, and the normalised response was 95.6%. `C[C@@]1(C(=O)Nc2ccc(F)nc2)CCCN1c1nc(Nc2cc(C3CC3)n[nH]2)c2cccn2n1` (1 nM) gave a normalised response of 95.9%. `O=c1[nH]c(=O)n([C@H]2C[C@H](O)[C@@H](CO)O2)cc1F` [Floxuridine] (1 nM) showed a normalised response of 102%. In the case of `O=c1[nH]cc(F)c(=O)[nH]1` [Fluorouracil] (1 nM), the normalised response is reported as 107%. With `CS(=O)(=O)OCCCCOS(C)(=O)=O` [Busulfan] (10 nM) the normalised response was 103%. With `CCOc1cc2ncc(C#N)c(Nc3ccc(OCc4ccccn4)c(Cl)c3)c2cc1NC(=O)/C=C/CN(C)C` [Neratinib] (0.1 nM) the normalised response was 103%.

The molecules below were run on HCC1143 in the same assay as above. Conditions: incubation time: 72 h.
In short: as §1
`COc1c(C)cnc(Cn2cnc3c(Cl)nc(N)nc32)c1C` [BIIB021] (1 nM) was tested, and the normalised response was 97.6%. With `C[C@@]1(C(=O)Nc2ccc(F)nc2)CCCN1c1nc(Nc2cc(C3CC3)n[nH]2)c2cccn2n1` (1 nM) the normalised response was 89%. In the case of `O=c1[nH]c(=O)n([C@H]2C[C@H](O)[C@@H](CO)O2)cc1F` [Floxuridine] (1 nM), the normalised response is reported as 97.6%. `O=c1[nH]cc(F)c(=O)[nH]1` [Fluorouracil] (1 nM) gave a normalised response of 102%. In the case of `CS(=O)(=O)OCCCCOS(C)(=O)=O` [Busulfan] (10 nM), the normalised response is reported as 99.3%. With `CCOc1cc2ncc(C#N)c(Nc3ccc(OCc4ccccn4)c(Cl)c3)c2cc1NC(=O)/C=C/CN(C)C` [Neratinib] (0.1 nM) the normalised response was 100%.

What follows are molecules tested on MDA-MB-468 in the same assay as above. Conditions: incubation time: 72 h.
In short: as §1
Work on `COc1c(C)cnc(Cn2cnc3c(Cl)nc(N)nc32)c1C` [BIIB021] (1 nM) yielded a normalised response of 101%. `C[C@@]1(C(=O)Nc2ccc(F)nc2)CCCN1c1nc(Nc2cc(C3CC3)n[nH]2)c2cccn2n1` (1 nM) was tested, and the normalised response was 93.6%. With `O=c1[nH]c(=O)n([C@H]2C[C@H](O)[C@@H](CO)O2)cc1F` [Floxuridine] (1 nM) the normalised response was 105%. `O=c1[nH]cc(F)c(=O)[nH]1` [Fluorouracil] (1 nM) was tested, and the normalised response was 97.2%. For `CS(=O)(=O)OCCCCOS(C)(=O)=O` [Busulfan] (10 nM), the normalised response was 97.3%. Molecule `CCOc1cc2ncc(C#N)c(Nc3ccc(OCc4ccccn4)c(Cl)c3)c2cc1NC(=O)/C=C/CN(C)C` [Neratinib] (0.1 nM) has a normalised response of 105%.

The molecules below were run on CAL-85-1 in the same assay as above. Conditions: incubation time: 72 h.
In short: as §1
Molecule `COc1c(C)cnc(Cn2cnc3c(Cl)nc(N)nc32)c1C` [BIIB021] (1 nM) has a normalised response of 98.1%. `C[C@@]1(C(=O)Nc2ccc(F)nc2)CCCN1c1nc(Nc2cc(C3CC3)n[nH]2)c2cccn2n1` (1 nM) showed a normalised response of 93%. For `O=c1[nH]c(=O)n([C@H]2C[C@H](O)[C@@H](CO)O2)cc1F` [Floxuridine] (1 nM), the normalised response was 95.9%. For `O=c1[nH]cc(F)c(=O)[nH]1` [Fluorouracil] (1 nM), the normalised response was 105%. For `CS(=O)(=O)OCCCCOS(C)(=O)=O` [Busulfan] (10 nM), the normalised response was 104%. In the case of `CCOc1cc2ncc(C#N)c(Nc3ccc(OCc4ccccn4)c(Cl)c3)c2cc1NC(=O)/C=C/CN(C)C` [Neratinib] (0.1 nM), the normalised response is reported as 97.2%.

What follows are molecules tested on HCC1599 in the same assay as above. Conditions: incubation time: 72 h.
In short: as §1
`COc1c(C)cnc(Cn2cnc3c(Cl)nc(N)nc32)c1C` [BIIB021] (1 nM) was tested, and the normalised response was 124%. `C[C@@]1(C(=O)Nc2ccc(F)nc2)CCCN1c1nc(Nc2cc(C3CC3)n[nH]2)c2cccn2n1` (1 nM) gave a normalised response of 90.4%. With `O=c1[nH]c(=O)n([C@H]2C[C@H](O)[C@@H](CO)O2)cc1F` [Floxuridine] (1 nM) the normalised response was 96.9%. For `O=c1[nH]cc(F)c(=O)[nH]1` [Fluorouracil] (1 nM), the normalised response was 95.8%. `CS(=O)(=O)OCCCCOS(C)(=O)=O` [Busulfan] (10 nM) showed a normalised response of 84.3%. With `CCOc1cc2ncc(C#N)c(Nc3ccc(OCc4ccccn4)c(Cl)c3)c2cc1NC(=O)/C=C/CN(C)C` [Neratinib] (0.1 nM) the normalised response was 96.6%.

These molecules were tested on CAL-148 in the same assay as above. Conditions: incubation time: 72 h.
In short: as §1
Molecule `COc1c(C)cnc(Cn2cnc3c(Cl)nc(N)nc32)c1C` [BIIB021] (1 nM) has a normalised response of 106%. Work on `C[C@@]1(C(=O)Nc2ccc(F)nc2)CCCN1c1nc(Nc2cc(C3CC3)n[nH]2)c2cccn2n1` (1 nM) yielded a normalised response of 83.3%. `O=c1[nH]c(=O)n([C@H]2C[C@H](O)[C@@H](CO)O2)cc1F` [Floxuridine] (1 nM) gave a normalised response of 97.7%. Molecule `O=c1[nH]cc(F)c(=O)[nH]1` [Fluorouracil] (1 nM) has a normalised response of 105%. `CS(=O)(=O)OCCCCOS(C)(=O)=O` [Busulfan] (10 nM) was tested, and the normalised response was 96%. `CCOc1cc2ncc(C#N)c(Nc3ccc(OCc4ccccn4)c(Cl)c3)c2cc1NC(=O)/C=C/CN(C)C` [Neratinib] (0.1 nM) gave a normalised response of 105%.
